In series [1] the test system is Pseudomonas aeruginosa. As to the kind of experiment: Antimicrobial (printed 'antifungal') bioassay. The format is cell-based. On the procedure: (§1) The tested pathogenic fungi, Staphylococcus aureus (MRSA), methicillin-sensitive Staphylococcus aureus (MSSA), Escherichia coli and Pseudomonas aeruginosa, were provided by Tongji Hospital of Tongji Medical College of Huazhong University of Science and Technology. All samples dissolved in MeOH were tested for antifungal activity in vitro by mycelial growth inhibitory rate method, a Poison Food Technique.
(§2) Potato dextrose agar (PDA) medium was used as the medium for all test fungi.
(§3) The media (100 ml) incorporating test samples were inoculated at the center of agar discs of the test fungi (4 mm diameter). Three replicate plates for each fungus were incubated at 26 °C for all test fungi. Control plates containing media mixed with MeOH (1 ml) were in cluded. After incubation for 24–48 h, the mycelial growth of fungi (mm) in both treated (T) and control (C) Petri dishes was measured diametrically in three different directions (decussation method) until the fungal growth in the control dishes was almost complete. The percentage of growth inhibition ( I) was calculated using the […]
(§4) Table S2. Antifungal Effects of Compounds 1−8 (MIC, μg/ml). fungi MRSA MSSA E. coli P. aeruginosa

Series [2] concerns Escherichia coli. As to the kind of experiment: Antimicrobial (printed 'antifungal') bioassay. It is filed as cell-based. On the procedure:
as §1, §2, §3, §4

Series [3] relates to methicillin-sensitive Staphylococcus aureus (MSSA). As to the kind of experiment: Antimicrobial (printed 'antifungal') bioassay. It is filed as cell-based. On the procedure:
as §1, §2, §3, §4

In series [4] the test system is methicillin-resistant Staphylococcus aureus (MRSA). As to the kind of experiment: Antimicrobial (printed 'antifungal') bioassay. It is filed as cell-based. On the procedure:
as §1, §2, §3, §4

Series [5] in a line: Cytotoxic assay (MTT), noncancerous cell line. The settings on record: human, Beas-2B bronchial epithelial cells (noncancerous). On the procedure:
(§5) Four human cancer cell lines (A549, MCF-7, HepG2, and HL-60 cells), together with one noncancerous cell line, the human bronchial epithelial cells Beas-2B, were used in the cytotoxic activity assay. All cells were cultured in DMEM or RPMI- 1640 medium (HyClone, Logan, UT, USA), supplemented with 10% fetal bovine serum (HyClone) at 37 °C in a humidified atmosphere with 5% CO 2 . The cell survival assay was performed using the MTT method. Briefly, 100 μ L of a suspension of the adherent cells was seeded into each well of the 96 - well culture plates and allowed to adhere for 12 h before addition of the test compounds. The suspended cells were seeded at an initial density of 1 × 10^5 cells/mL immediately before the addition of the drug. Each tumor cell line was exposed for 48 h in triplicate to the test compounds at concentrations of 0.0625 , 0.32, 1.6, 8, and 40 μ M, with DDP (cis - platin, Sigma) and paclitaxel as positive controls. After incubation, culture supernatants were removed and exchanged with medium containing 0.5 mg/mL MTT. Then, the cells were incubated for 4 h at 37 °C in darkness , followed by the removal of the medium and adding 100 μ L dimethyl sulfoxide. The absorbance at 570 nm was detected and the data were expressed as the mean percentage of absorbance in treated vs. control cells.

Series [6] deals with human recombinant AChE (Homo sapiens, UniProt P22303). The series can be described thus: biochemical. Conditions: for inhibition at 100 µM: AChE, read-out: Inhibitory Ratio at 100 μM; for IC50: read-out: IC50 Value against AChE. On the procedure: Briefly, 20 µL AChE (0.05 U/mL) and 20 µL different concentrations of compounds (0.1 M phosphate buffer, pH 8.0) containing 0.1% Triton X-100) were pre-incubated at 37 °C for 30 min, then 160 µL of the assay solution which consisted of a 0.1 M phosphate buffer pH 8.0, with the addition of 600 µM 5,5’-dithio-bis (2-nitrobenzoic acid) and 550 µM acetylthiocholine iodide (ATCh) were added in the 96-well plates. The absorbance value at 425 nm was recorded for 15 min and enzyme activity was calculated from the slope of the obtained linear trend. The reaction rates were compared and the % inhibition due to the presence of tested inhibitors was calculated. Each concentration was analyzed in triplicate, and IC50 values were determined graphically from log concentration inhibition curves (Graphpad Prism 5, GraphPad Software Inc., San Diego, CA, USA).
Sequence of human recombinant AChE (P22303 32-614): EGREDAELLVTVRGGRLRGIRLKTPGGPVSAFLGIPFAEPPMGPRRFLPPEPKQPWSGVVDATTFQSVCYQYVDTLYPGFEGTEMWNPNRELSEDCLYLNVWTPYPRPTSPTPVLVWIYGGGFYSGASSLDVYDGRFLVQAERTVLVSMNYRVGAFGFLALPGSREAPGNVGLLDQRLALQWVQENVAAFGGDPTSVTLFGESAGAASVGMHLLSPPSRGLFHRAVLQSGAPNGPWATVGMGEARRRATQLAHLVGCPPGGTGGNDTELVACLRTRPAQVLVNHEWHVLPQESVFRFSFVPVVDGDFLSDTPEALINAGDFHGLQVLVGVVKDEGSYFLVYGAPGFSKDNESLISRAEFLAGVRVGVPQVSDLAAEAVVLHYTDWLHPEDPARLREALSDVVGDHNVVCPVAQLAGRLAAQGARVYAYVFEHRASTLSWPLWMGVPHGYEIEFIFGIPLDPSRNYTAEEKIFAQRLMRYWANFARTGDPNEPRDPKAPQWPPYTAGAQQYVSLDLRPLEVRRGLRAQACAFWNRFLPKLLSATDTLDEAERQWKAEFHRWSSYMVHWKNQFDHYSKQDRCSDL

Series [7] in a line: in vitro. The settings on record: human, A549 cells. On the procedure: Four human cancer cell lines (A549, MCF-7, HepG2, and HL-60 cells), together with one noncancerous cell line, the human bronchial epithelial cells Beas-2B, were used in the cytotoxic activity assay. […]
medium (HyClone, Logan, UT, USA), supplemented with 10% fetal bovine serum (HyClone) at 37 °C in a humidified atmosphere with 5% CO 2 . The cell survival assay was performed using the MTT method. Briefly, 100 μ L of a suspension of the adherent cells was seeded into each well of the 96 - well culture plates and allowed to adhere for 12 h before addition of the test compounds. The suspended cells were seeded at an initial density of 1 × 10^5 cells/mL immediately before the addition of the drug. Each tumor cell line was exposed for 48 h in triplicate to the test compounds at concentrations […]
positive controls. After incubation, culture supernatants were removed and exchanged with medium containing 0.5 mg/mL MTT. Then, the cells were incubated for 4 h at 37 °C in darkness , followed by the removal of the medium and adding 100 μ L dimethyl sulfoxide. The absorbance at 570 nm was detected and the data were expressed as the mean percentage of absorbance in treated vs. control cells.

Series [8] can be described thus: Cytotoxic assay (MTT). Conditions: human. On the procedure: as §5
For series [9], the system named is methicillin-resistant Staphylococcus aureus (MRSA). The settings on record: cited from earlier work.

Converted amounts (≈) assume the structure as drawn. Read-outs that look alike come from different tables or passages of the source. A value given as a limit tells only on which side of the number the result lay.

These results are taken from publication PMC6025407, “Asperversins A and B, Two Novel Meroterpenoids with an Unusual 5/6/6/6 Ring from the Marine-Derived Fungus Aspergillus versicolor” (Marine Drugs, 2018).

A word on the MIC: it is the lowest concentration found to suppress growth. By IC50 is commonly meant the concentration that gives 50% inhibition. On to `COC(=O)C[C@@H]1OC(C)(C)[C@@H]2[C@H](OC(C)=O)C[C@@]3(C)Oc4cc(C)oc(=O)c4C[C@@H]3[C@@]12C` [Compound 1, Asperversin A], for which the MIC in [1] (P. aeruginosa, read-out: MIC) is over 100 µg/mL; in series [2] (E. coli, read-out: MIC), over 100 µg/mL; in series [3] (read-out: MIC) it was over 100 µg/mL; in series [4] (read-out: MIC) it was over 100 µg/mL. Also, the IC50 at 48 h in series [5], in [7], in series [8] (HL-60 cells), in [8] (HepG2 cells) and in series [8] (MCF-7 cells) was over 40 µM in each case. Besides, the inhibition at 100 µM in series [6] turned out to be 35.7%. For the same compound, the 50% inhibitory concentration (IC50) in [6] was over 40 µM.

With `CC(=O)O[C@@H]1C[C@@]2(C)Oc3cc(C)oc(=O)c3C[C@@H]2[C@@]2(C)[C@H](CC(=O)O)OC(C)(C)[C@H]12` [Compound 2, Asperversin B], the MIC in [1] (P. aeruginosa, read-out: MIC) was over 100 µg/mL; in [2] (E. coli, read-out: MIC) it was over 100 µg/mL; in series [3] (read-out: MIC) it was over 100 µg/mL; in series [4] (read-out: MIC), over 100 µg/mL. In addition, the half-maximal inhibitory concentration (IC50) at 48 h in series [5], in series [7], in series [8] (HL-60 cells), in series [8] (HepG2 cells) and in series [8] (MCF-7 cells) was over 40 µM each time. Also, the inhibition at 100 µM in [6] was found to be 36.2%. Also, the IC50 in [6] is over 40 µM.

Consider `C=C(C)[C@@H]1[C@H](OC(C)=O)C[C@@]2(C)Oc3cc(C)oc(=O)c3C[C@@H]2[C@@]1(C)[C@H](CC(=O)OC)OC(C)=O` [Compound 3, Asperversin C], for which the MIC was over 100 µg/mL in [1] (P. aeruginosa, read-out: MIC); over 100 µg/mL in series [2] (E. coli, read-out: MIC); over 100 µg/mL in series [3] (read-out: MIC); over 100 µg/mL in series [4] (read-out: MIC). In addition, the concentration for half-maximal inhibition (IC50) at 48 h in series [5], in [7], in series [8] (HL-60 cells), in [8] (HepG2 cells) and in series [8] (MCF-7 cells) was over 40 µM each time. In addition, the inhibition at 100 µM in series [6] amounted to 27.6%. The IC50 in [6] is over 40 µM.

Consider `Cc1cc2c(c(=O)o1)C[C@@H]1[C@@]3(C)[C@@H](O)CC(=O)OC(C)(C)[C@@H]3CC[C@@]1(C)O2` [Compound 4, Asperversin D], for which the minimum inhibitory concentration (MIC) was over 100 µg/mL in series [1] (P. aeruginosa, read-out: MIC); over 100 µg/mL in [2] (E. coli, read-out: MIC); over 100 µg/mL in series [3] (read-out: MIC); over 100 µg/mL in series [4] (read-out: MIC). For the same compound, the half-inhibitory concentration (IC50) at 48 h in series [5], in series [7], in [8] (HL-60 cells), in series [8] (HepG2 cells) and in series [8] (MCF-7 cells) was over 40 µM each time. For the same compound, the inhibition at 100 µM in series [6] was determined as 50.2%. Further, the concentration for half-maximal inhibition (IC50) in [6] was over 40 µM.

Take `CC(=O)OC1CC2(C)Oc3cc(C)oc(=O)c3CC2C2(C)C(O)CC(=O)OC(C)(C)C12` (stereo not drawn) [Compound 5, Asperversin E]: the MIC in series [1] (P. aeruginosa, read-out: MIC) was over 100 µg/mL; in series [2] (E. coli, read-out: MIC), over 100 µg/mL; in series [3] (read-out: MIC), over 100 µg/mL; in series [4] (read-out: MIC), over 100 µg/mL. The IC50 at 48 h in series [5], in series [7], in series [8] (HL-60 cells), in series [8] (HepG2 cells) and in series [8] (MCF-7 cells) was over 40 µM throughout. For the same compound, the inhibition at 100 µM in series [6] is 48.7%. In [6], the IC50 was over 40 µM.

Take `CC(=O)O[C@H]1CC(=O)OC(C)(C)[C@@H]2[C@H](OC(C)=O)C[C@@]3(C)Oc4cc(C)oc(=O)c4C[C@@H]3[C@@]12C` [Compound 6, Asperversin F]: the MIC was over 100 µg/mL in [1] (P. aeruginosa, read-out: MIC); over 100 µg/mL in series [2] (E. coli, read-out: MIC); over 100 µg/mL in [3] (read-out: MIC); over 100 µg/mL in series [4] (read-out: MIC). Besides, the IC50 at 48 h in series [5], in [7], in [8] (HL-60 cells), in series [8] (HepG2 cells) and in series [8] (MCF-7 cells) was over 40 µM each time. Moreover, the inhibition at 100 µM in [6] was 62.9%. The IC50 in series [6] was over 40 µM.

For the compound `CC(=O)OC1CC2(C)Oc3cc(C)oc(=O)c3CC2C2(C)C=CC(=O)C(C)(C)C12` (stereo not drawn) [Compound 7, Asperversin G], the minimal inhibitory concentration (MIC) in [1] (P. aeruginosa, read-out: MIC) is over 100 µg/mL; in [2] (E. coli, read-out: MIC), over 100 µg/mL; in series [3] (read-out: MIC) it was over 100 µg/mL; in series [4] (read-out: MIC) it was over 100 µg/mL. Further, the concentration for half-maximal inhibition (IC50) at 48 h in [5], in series [7], in [8] (HL-60 cells), in [8] (HepG2 cells) and in [8] (MCF-7 cells) was over 40 µM in each case. In addition, in series [6], the inhibition at 100 µM turned out to be 92.4%. Also, the concentration for half-maximal inhibition (IC50) in series [6] stood at 13.6 µM.

For the compound `Cc1cc2c(c(=O)o1)C[C@@H]1[C@@]3(C)[C@@H](O)CC(=O)OC(C)(C)[C@@H]3[C@H](O)C[C@@]1(C)O2` [Compound 8, asperdemin], the minimal inhibitory concentration (MIC) was over 100 µg/mL in series [1] (P. aeruginosa, read-out: MIC); over 100 µg/mL in series [2] (E. coli, read-out: MIC); over 100 µg/mL in series [3] (read-out: MIC); over 100 µg/mL in [4] (read-out: MIC). Also, the IC50 at 48 h in series [5], in series [7], in series [8] (HL-60 cells), in series [8] (HepG2 cells) and in series [8] (MCF-7 cells) was over 40 µM in each case. Moreover, in [6], the inhibition at 100 µM is 25.3%. Further, in series [6], the concentration for half-maximal inhibition (IC50) is over 40 µM.

Consider `CN[C@H](CC(C)C)C(=O)N[C@H]1C(=O)N[C@@H](CC(N)=O)C(=O)N[C@H]2C(=O)N[C@H]3C(=O)N[C@H](C(=O)N[C@H](C(=O)O)c4cc(O)cc(O)c4-c4cc3ccc4O)[C@H](O)c3ccc(c(Cl)c3)Oc3cc2cc(c3O[C@@H]2O[C@H](CO)[C@@H](O)[C@H](O)[C@H]2O[C@H]2C[C@](C)(N)[C@H](O)[C@H](C)O2)Oc2ccc(cc2Cl)[C@H]1O` [vancomycin, reference compound], for which the MIC in series [1] was determined as 0.8 µg/mL (≈ 0.552 µM); in series [2], 0.5 µg/mL (≈ 0.345 µM); in [3], 0.5 µg/mL (≈ 0.345 µM); in series [4] it was 1.2 µg/mL (≈ 0.828 µM).

Take Apiroaspertrione A: the “activity against MRSA (in words)” value in series [9] is reported as “effective activity”.
